Where a name gives a salt, the structure may show the parent alone. Read-outs that look alike come from different tables or passages of the source. Some results are limits rather than exact numbers.

The test system of test [1] is RBL2H3 cells. As to the kind of experiment: Degranulation assay: β-hexosaminidase release during immune complex mediated degranulation. The class given is cell-based, rat. The note with it: Assay Protocol B (96 well format); for inhibition at 1 µM: read-out: Degranulation % inhibition at 1 μM; for EC50: read-out: Degranulation EC50. As to the method: The objective of this assay was to examine by Fluorescence method the effect of compounds on β-hexosaminidase release during immune complex mediated degranulation in RBL2H3 cells. Compounds were tested for their ability to inhibit the ability of this immune complex to mediate β-hexosaminidase release, in an enzyme assay with […] as substrate. […] Emission 460 nm). [table] [table] RBL2H3 cells were maintained in MEM complete media containing 10% FBS at 70%-80% confluence in a mammalian cell culture CO2 incubator with 5% CO2 at 37° C. 2×10^5 cells/well were plated in 1 mL of complete media and incubated for 5 hours for cell attachment. Complete media was replaced with 1 mL of serum free MEM media containing 1.2 μg/mL of anti-DNP rat IgE as sensitizing agent and further incubated overnight with 5% CO2 at 37° C. […] Cells were further stimulated with 5 μg/mL of DNP-BSA for 60 minutes. Plates were centrifuged for 5 minutes at 1000 rpm and 25 μL of culture supernatant was transferred from each assay well into a 96 well black coated plate. 25 μL β-NAG substrate was added to this mixture and incubated at room temperature for 30 minutes. The reaction was terminated with 100 μL of stop solution and fluorescence was monitored. (Excitation 355 nm; Emission 460 nm) See, Sanderson, (2010), Cellular Immunology, 262(1): 28-34 and Silverman, (2006) MCB, 26(5):1826-1838, which are incorporated herein by reference. The % release of β-Hexosaminidase for the test compound was calculated using the following formula: RBL2H3 cells were maintained in MEM complete media containing 10% FBS at 70-80% confluence in a mammalian cell culture CO2 incubator with 5% CO2 at 37° C. 5×10^4 cells/well were plated in 200 μL of complete media containing 0.3 μg/mL of anti-DNP rat IgE as sensitizing agent for 24 hours at 37° C. & 5% CO2. The following day, cells were washed twice with PIPES buffer for 10 minutes at 37° C. and replenished with serum free MEM media. Cells were treated with various concentrations of test compounds (in 0.5% DMSO) for 15 minutes at 37° C. and 5% CO2. The cells were further stimulated with 0.1 μg/mL of DNP-BSA for 45 minutes. The plates were spun for 5 minutes at 2000 rpm and 25 μL of culture supernatant was then transferred from each assay well into a 96 well black coated plate. […] β-NAG substrate was added and incubated at RT for 30 minutes. After incubation with substrate, 150 μL of stop solution was added and fluorescence was monitored. (Excitation 355 nm; Emission 460 nm). See, Yamamoto, JPET, 306(3):1174-1181 (2003) and Taylor, MCB, 15(8): 4149-4157 (1995), which are herein incorporated by reference. Release of β-hexosaminidase during the degranulation process by immune complex mediated FcεRI stimulation is through the SYK pathway. The % inhibition of β-hexosaminidase release by Syk inhibitor gives information with regard to its Syk inhibition potency.

In test [2] the target is Syk (356-635 amino acids) catalytic domain (Homo sapiens (Human), UniProt P43405). As to the kind of experiment: Inhibition of enzymatic Syk kinase activity (radiometric). The class given is biochemical. The note with it: read-out: IC50 Syk. The procedure, abridged: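 Human Syk (356-635) kinase domain (0.035–7.5 ng/reaction) preincubated with compound 30 minutes at room temperature, then reacted with pG4T substrate, 100 μM ATP (stock) and γ-32P-ATP for 10 minutes at 30° C. Reaction stopped with HCl/ATP, spotted on P81 paper, washed and counted by scintillation. Percent inhibition versus no-compound counts.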

The target of test [3] is JAK2 (Homo sapiens (Human), UniProt O60674). As to the kind of experiment: Inhibition of enzymatic JAK2 kinase activity (TR-FRET). The class given is biochemical. The note with it: read-out: IC50 JAK. The procedure, abridged: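 Enzyme preincubated with compound 30 min at RT, then Ulight-poly-GT substrate and ATP added for 60 min at RT. EDTA stop, Eu-antiphosphotyrosine antibody; TR-FRET ratio 665/615 nm (ex 340 nm), blank-corrected; % inhibition versus positive control.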
Sequence of JAK2 (O60674 808-1132): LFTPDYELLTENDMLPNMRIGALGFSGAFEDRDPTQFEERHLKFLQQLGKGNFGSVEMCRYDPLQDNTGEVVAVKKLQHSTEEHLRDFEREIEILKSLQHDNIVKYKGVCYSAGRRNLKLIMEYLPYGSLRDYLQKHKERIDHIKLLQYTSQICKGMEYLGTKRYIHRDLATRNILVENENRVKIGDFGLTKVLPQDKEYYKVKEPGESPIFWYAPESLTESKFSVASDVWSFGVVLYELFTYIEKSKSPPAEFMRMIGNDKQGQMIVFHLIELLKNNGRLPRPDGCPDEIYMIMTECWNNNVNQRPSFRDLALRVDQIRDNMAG
In general terms: In TR-FRET formats the signal depends on donor and acceptor labels being close together.

Setting [4] is: Rattus norvegicus, RBL-2H3, 1 μM.

Take `N#CCC1CCN(c2nc(Nc3ccc(OCCC4CCNCC4)cc3)c3c(=O)[nH]ncc3n2)CC1` [Example 169, 2-(1-(5-oxo-4-((4-(2-(piperidin-4-yl)ethoxy)phenyl)amino)-5,6-dihydropyrimido[4,5-d]pyridazin-2-yl)piperidin-4-yl)acetonitrile]: in test [1] (setting [4]), the inhibition at 1 µM is 17%. Moreover, the EC50 in test [1] (Rattus norvegicus, RBL-2H3) stood at 230 nM. Besides, the half-inhibitory concentration (IC50) in test [2] is below 50 nM.

`CC1CC(C)CN(c2nc(Nc3ccc(N4CCC(CC(=O)O)CC4)cc3)c3c(=O)[nH]ncc3n2)C1` (centres unmarked) [Example 117, 2-(1-(4-((2-(3,5-dimethylpiperidin-1-yl)-5-oxo-5,6-dihydropyrimido[4,5-d]pyridazin-4-yl)amino)phenyl)piperidin-4-yl)acetic acid]: the inhibition at 1 µM in test [1] (setting [4]) came out at 89%. In addition, in test [1] (Rattus norvegicus, RBL-2H3), the half-maximal effective concentration (EC50) is 95 nM.

As to `O=c1[nH]ncc2nc(N3CCCCCC3)nc(Nc3ccc(N4CCN(CCO)CC4)cc3)c12` [Example 190, 2-(azepan-1-yl)-4-((4-(4-(2-hydroxyethyl)piperazin-1-yl)phenyl)amino)pyrimido[4,5-d]pyridiazin-5(6H)-one], the “Degranulation % inhibition at 1 μM” value in test [1] (1 μM) came to 83%. The concentration giving a half-maximal response (EC50) in test [1] was found to be 21 nM.

`CCN1CCN(CCc2ccc(Nc3nc(N4CCCCCC4)nc4cn[nH]c(=O)c34)cc2)CC1` [Example 209, 2-(azepan-1-yl)-4-((4-(2-(4-ethylpiperazin-1-yl)ethyl)phenyl)amino) pyrimido[4,5-d]pyridazin-5(6H)-one]: the inhibition at 1 µM in test [1] (setting [4]) amounted to 81%. In addition, in test [1] (Rattus norvegicus, RBL-2H3), the EC50 came out at 29 nM. Further, the half-maximal inhibitory concentration (IC50) in test [2] is below 10 nM.

Take `O=C(O)CN1CCN(c2ccc(Nc3nc(N4CCCCCC4)nc4cn[nH]c(=O)c34)cc2)CC1` [Example 125, 2-(4-(4-((2-(azepan-1-yl)-5-oxo-5,6-dihydropyrimido[4,5-d]pyridazin-4-yl)amino)phenyl)piperazin-1-yl)acetic acid]: the inhibition at 1 µM in test [1] (setting [4]) worked out at 38%. For the same compound, in test [1] (Rattus norvegicus, RBL-2H3), the 50% effective concentration (EC50) is 238 nM.

Turning to `N#CCC1CCN(c2nc(Nc3ccc(CCCN4CCNCC4)cc3)c3c(=O)[nH]ncc3n2)CC1` [Example 174, 2-(1-(5-oxo-4-((4-(3-(piperazin-1-yl)propyl)phenyl)amino)-5,6-dihydropyrimido[4,5-d]pyridazin-2-yl)piperidin-4-yl)acetonitrile], the inhibition at 1 µM in test [1] (setting [4]) turned out to be 99%. The EC50 in test [1] (Rattus norvegicus, RBL-2H3) turned out to be 15 nM.

In the case of `O=C(c1ccc(Nc2nc(N3CCCCCC3)nc3cn[nH]c(=O)c23)cc1)N1CCOCC1` [Example 68, 2-(azepan-1-yl)-4-((4-(morpholine-4-carbonyl)phenyl)amino)pyrimido[4,5-d]pyridazin-5(6H)-one], in test [1] (setting [4]), the inhibition at 1 µM turned out to be 100%. In test [1] (Rattus norvegicus, RBL-2H3), the half-maximal effective concentration (EC50) is 1.2 nM. Besides, in test [2], the IC50 is below 100 nM.

Regarding `CCN1CCN(CCOc2ccc(Nc3nc(N4CCCCCC4)nc4cn[nH]c(=O)c34)cc2)CC1` [Example 151, 2-(azepan-1-yl)-4-((4-(2-(4-ethylpiperazin-1-yl)ethoxy)phenyl)amino) pyrimido[4,5-d]pyridazin-5(6H)-one], in test [1] (Rattus norvegicus, RBL-2H3), the concentration giving a half-maximal response (EC50) stood at 24 nM.

On to `N#CCC1CCN(c2nc(Nc3ccc(N4CCC5(CC4)CC5C(=O)O)cc3)c3c(=O)[nH]ncc3n2)CC1` (centres unmarked) [Example 66, 6-(4-((2-(4-(cyanomethyl)piperidin-1-yl)-5-oxo-5,6-dihydropyrimido[4,5-d]pyridazin-4-yl)amino)phenyl)-6-azaspiro[2.5]octane-1-carboxylic acid], for which the inhibition at 1 µM in test [1] (setting [4]) was 75%. Further, the concentration for a half-maximal effect (EC50) in test [1] (Rattus norvegicus, RBL-2H3) was determined as 352 nM. Further, the half-inhibitory concentration (IC50) in test [2] is below 50 nM.

As for `O=c1[nH]ncc2nc(N3CCCCCC3)nc(Nc3ccc(OCCN4CCCNCC4)cc3)c12` [Example 164, 4-((4-(2-(1,4-diazepan-1-yl)ethoxy)phenyl)amino)-2-(azepan-1-yl)pyrimido[4,5-d]pyridazin-5(6H)-one], the EC50 in test [1] (Rattus norvegicus, RBL-2H3) turned out to be 55 nM.

With `O=C(O)C1CC12CCN(c1ccc(Nc3nc(-c4ccc(F)cc4)nc4cn[nH]c(=O)c34)cc1)CC2` (centres unmarked) [Example 133, 6-(4-((2-(4-fluorophenyl)-5-oxo-5,6-dihydropyrimido[4,5-d]pyridazin-4-yl)amino)phenyl)-6-azaspiro[2.5]octane-1-carboxylic acid], in test [1] (setting [4]), the inhibition at 1 µM is 98%. For the same compound, in test [1] (Rattus norvegicus, RBL-2H3), the EC50 was 25 nM.

In the case of `CN(c1nc(Nc2ccc(N3CCC4(CC3)CC4C(=O)O)cc2)c2c(=O)[nH]ncc2n1)C1CCCCC1` (centres unmarked) [Example 170, 6-(4-((2-(cyclohexyl(methyl)amino)-5-oxo-5,6-dihydropyrimido[4,5-d]pyridazin-4-yl)amino)phenyl)-6-azaspiro[2.5]octane-1-carboxylic acid], the inhibition at 1 µM in test [1] (setting [4]) turned out to be 39%. In test [1] (Rattus norvegicus, RBL-2H3), the EC50 was determined as 107 nM.

In the case of `N#CCC1CCN(c2nc(Nc3ccc(N4CCC(F)CC4)cc3)c3c(=O)[nH]ncc3n2)CC1` [Example 290, 2-(1-(4-((4-(4-fluoropiperidin-1-yl)phenyl)amino)-5-oxo-5,6-dihydropyrimido[4,5-d]pyridazin-2-yl)piperidin-4-yl)acetonitrile], the inhibition at 1 µM in test [1] (setting [4]) amounted to 100%. In addition, the EC50 in test [1] (Rattus norvegicus, RBL-2H3) came out at 20 nM.

In the case of `O=c1[nH]ncc2nc(N3CCCCCC3)nc(Nc3ccc(OCCN4CCNCC4)cc3)c12` [Example 89, 2-(azepan-1-yl)-4-((4-(2-(piperazin-1-yl)ethoxy)phenyl)amino)pyrimido[4,5-d]pyridazin-5(6H)-one hydrochloride], the inhibition at 1 µM in test [1] (setting [4]) stood at 100%.

On to `N#CCC1CCN(c2ccc(Nc3nc(N4CCC(CC#N)CC4)nc4cn[nH]c(=O)c34)cn2)CC1` [Example 103, 2-(1-(5-((2-(4-(cyanomethyl)piperidin-1-yl)-5-oxo-5,6-dihydropyrimido[4,5-d]pyridazin-4-yl)amino)pyridin-2-yl)piperidin-4-yl)acetonitrile], for which the inhibition at 1 µM in test [1] (setting [4]) amounted to 87%. For the same compound, in test [1] (Rattus norvegicus, RBL-2H3), the 50% effective concentration (EC50) is 32 nM.

Take `CN(C)CCOc1ccc(Nc2nc(N3CCCCCC3)nc3cn[nH]c(=O)c23)cc1` [Example 167, 2-(azepan-1-yl)-4-((4-(2-(dimethylamino)ethoxy)phenyl)amino)pyrimido[4,5-d]pyridazin-5(6H)-one]: the IC50 in test [3] is below 10 nM; in test [2], below 50 nM.

On to `O=c1[nH]ncc2nc(-c3ccc(CN4CCOCC4)cc3)nc(Nc3ccc(CN4CCNCC4)cc3)c12` [Example 55, 2-(4-(morpholinomethyl)phenyl)-4-((4-(piperazin-1-ylmethyl)phenyl)amino) pyrimido[4,5-d]pyridazin-5(6H)-one hydrochloride], for which the IC50 in test [3] and in test [2] was above 100 nM in each case.

On to `O=c1[nH]ncc2nc(-c3ccccc3)nc(Nc3ccc(CN4CCOCC4)cc3)c12` [Example 4, 4-(4-(morpholinomethyl)phenylamino)-2-phenylpyrimido[4,5-d]pyridazin-5(6H)-one], for which the values for the IC50 in test [3] and in test [2] were below 50 nM and below 100 nM, respectively.

Take `O=C(O)CCC1CCN(c2ccc(Nc3nc(N4CCCCCC4)nc4cn[nH]c(=O)c34)cc2)CC1` [Example 130, 3-(1-(4-((2-(azepan-1-yl)-5-oxo-5,6-dihydropyrimido[4,5-d]pyridazin-4-yl)amino)phenyl)piperidin-4-yl)propanoic acid]: the IC50 in test [3] and in test [2] was below 10 nM each time.

In the case of `O=C(O)CC1CCC(c2ccc(Nc3nc(-c4ccccc4)nc4cn[nH]c(=O)c34)cc2)CC1` (centres unmarked) [Example 87, 2-(4-(4-((5-oxo-2-phenyl-5,6-dihydropyrimido[4,5-d]pyridazin-4-yl)amino)phenyl)cyclohexyl)acetic acid], the IC50 in test [3] was below 100 nM; in test [2] it was below 50 nM.

What is called inhibition is the relative decrease from the control value, in per cent. A word on the EC50: it is the concentration at which the effect is half-maximal. As usually defined, the IC50 is the concentration at which inhibition is half-maximal.
